What is called pIC50 is −log10 of the IC50, conventionally taken in molar units.

pIC50: −log10 of the molar value.

In data set [1] the target is T1, His tagged full-length PTP1B protein (Homo sapiens, UniProt P18031).
T1 construct: made in house
T1 sequence (P18031 with tags, fused parts or gaps): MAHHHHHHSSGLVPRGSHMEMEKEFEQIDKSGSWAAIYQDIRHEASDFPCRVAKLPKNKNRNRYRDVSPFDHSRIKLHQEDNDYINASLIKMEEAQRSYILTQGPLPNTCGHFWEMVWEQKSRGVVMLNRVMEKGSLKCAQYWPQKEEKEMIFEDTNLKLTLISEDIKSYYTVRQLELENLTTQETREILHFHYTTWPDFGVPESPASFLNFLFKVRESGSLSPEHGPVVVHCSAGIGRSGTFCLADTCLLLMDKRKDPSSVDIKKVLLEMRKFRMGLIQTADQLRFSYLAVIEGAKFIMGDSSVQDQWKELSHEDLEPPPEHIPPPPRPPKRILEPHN
In words: Mobility Shift Assay (MSA) used to determine potency of PTP1B inhibitors. Format: biochemical. Particulars: Table 2. How it is done:
The enzymatic assay used to determine activity is a mobility shift assay using a LabChip EZ Reader by Caliper Life Sciences. The enzymatic reaction was carried out in assay buffer (50 mM HEPES pH 7.5, 1 mM EGTA, 10 mM EDTA, 0.01% Tween® 20, and 2 mM DTT). […] The enzyme (at 0.5 nM) was incubated with compound for 10 minutes at room temperature. […] The % inhibition was then used to calculate the IC50 values.

The test system of data set [2] is B16F10 mouse melanoma cells. As to the kind of experiment: B16F10 IFNγ-induced cellular growth inhibition assay. Format: cell-based. Particulars: absence of IFNγ. As to the method: Example 294: B16F10 IFNγ-Induced Cellular Growth Inhibition Assay
B16F10 mouse melanoma cells (ATCC Cat# CRL-6475, Manassas, Va.) were seeded at a density of 500 cells per well in a 384-well clear bottom plate (Corning Cat#3765, Corning, N.Y.) in 25 μL total volume of DMEM+10% FBS (Sigma Cat# D6429 and Sigma Cat# F4135, St. Louis, MO). Cells were allowed to adhere overnight at 37° C. +5% CO2. On the following day, 12.5 μL of mouse IFNγ (RD systems Cat# 485-MI/CF, Minneapolis, Minn.) was added to half of the plate (columns 13-24) at a concentration of 2 ng/mL for a final assay concentration of 0.5 ng/mL of IFNγ. Media only (12.5 μL of DMEM+10% FBS) was added to the remainder of the plate (columns 1-12). Next, compounds resuspended in DMSO (Sigma Cat# D2650) at 100 mM were diluted in semi-log dilutions in DMSO ranging from 100 mM to 0.001 mM and DMSO only controls were included. The compound/DMSO dilutions were further diluted 1:250 in DMEM+10% FBS, and 12.5 μL of these dilutions were added in triplicates to cells of both treatment arms (with and without IFNγ). Final compound concentrations ranged from 100 μM to 0.001 μM with a final DMSO concentration of 0.1%. Compounds were only dosed in the inner 240 wells, avoiding the outer 2-well perimeter of the plate to minimize edge effects. Finally, the plate was loaded into an IncuCyte® S3 Live Cell Analysis System (Essen Bioscience-Sartorius, Ann Arbor, Mich.) maintained in a 37° C. +5% CO2 incubator, allowed to equilibrate for 2 hours, and imaged every 6 hours for 5 days. Confluence over time for compound dilutions in the presence and absence of IFNγ was measured. Growth inhibition values were obtained when the “DMSO/no IFNγ” control reached confluence >95%. At these time points, the percent growth inhibition of each compound at the indicated concentration was calculated relative to the “DMSO/with IFNγ” control.

Data set [3] relates to Pan T cells isolated from C57BL6 splenocytes. As to the kind of experiment: T cell activation assay (CD25/CD69 flow cytometry). Particulars: with TCR stimulation; Table 5. Type of data set: cell-based, mouse. As to the method:
Example 295: T cell activation and function assays
Pan T cells were isolated from C57BL6 splenocytes using a MACS Pan T cell isolation kit II (Miltenyi Biotec, Auburn, Calif.) according to the manufacturer's instructions. Isolated T cells (200,000 cells/well in a 96 well flat-bottom plate) were cultured in RPMI 1640 supplemented with 10% FBS, […] 2-mercatoethanol, 100 U/mL penicillin, and 100 μg/mL streptomycin, and incubated with the indicated concentration of compound or DMSO in duplicates. After 1 hour, mouse T cell activator CD3/CD28 Dynabeads (ThermoFisher Scientific, Waltham, Mass.) were added at a 1:5 beads to cells ratio to stimulate the T cells for 2 or 3 days as outlined below. T cells with or without compound were incubated in the absence of T cell activator beads (media only) as control.
After 2 days of stimulation, activation status of T cells was assessed by flow cytometry. T cells were first subjected to Zombie Violet™ Fixable Viability dye (BioLegend, San Diego, Calif.) for dead cell exclusion, washed and then stained with BUV805 labeled anti-CD8, APC-R700 labeled anti-CD25 (both from BD Biosciences, San Jose, Calif.) and PE labeled anti-CD69 (BioLegend, San Diego, Calif.) antibodies. After staining, cells were fixed with 2% paraformaldehyde and acquired on a BD LSRFortessa™ X-20 flow cytometer (BD Biosciences, San Jose, Calif.) using BD FACSDiva™ software. Data was analyzed using FlowJo V10 (Flow Jo LLC, Ashland, OR). Dead cells were excluded and frequencies of activated CD8 T cells was reported as the frequency of CD25+ or CD69+ cells within the CD8+ population. The expression level of CD25 and CD69 indicates the activation status of cells on a per cell basis and was evaluated by the mean fluorescence intensities (MFI) of CD25 and CD69.
In general terms: A flow cytometer gives signals particle by particle.

Data set [4] relates to MC-38 murine colon adenocarcinoma. As to the kind of experiment: In vivo efficacy in MC38 syngeneic tumor model. Particulars: 300 mg/kg/dose oral BID for 21 days. How it is done:
All experiments were conducted in compliance with AbbVie's Institutional Animal Care and Use Committee and the National Institutes of Health Guide for Care and Use of Laboratory Animals guidelines in a facility accredited by the Association for the Assessment and Accreditation of Laboratory Animal Care. […] The mice were group-housed 10 per cage. Food and water were available ad libitum. Animals were acclimated to the animal facilities for a period of at least one week prior to commencement of experiments. Animals were tested in the light phase of a 12-hour light:12-hour dark schedule (lights on 0600 hours).
Cells were grown to passage 3 in vitro. […] The injection volume was 0.1 mL and was composed of a 1:1 mixture of S-MEM and Matrigel® (Corning, N.Y., USA). […] Following size match, treatments were initiated on the same day. […] Compound 124 was formulated in 5% DMSO, 5% Tween 80 (Polysorbate 80), 20% PEG-400 and 70% D5W (5% dextrose in water) and was dosed at 10 mL/kg. […] Tumor volume was calculated three times weekly. Measurements of the length (L) and width (W) of the tumor were taken via electronic caliper and the volume was calculated according to the following equation: V=L×W^2/2 using Study Director Version 3.1.399.22 (Studylog Systems, Inc, CA, USA). […] Reported TGIMax is the largest TGI value for any timepoint that tumors volumes were collected for that treatment group.

On to `COc1ccc2cc(O)c(N3CC(=O)NS3(=O)=O)c(F)c2c1` [Compound 124, 5-(1-fluoro-3-hydroxy-7-methoxynaphthalen-2-yl)-1λ^6,2,5-thiadiazolidine-1,1,3-trione], for which, in data set [1], the pIC50 is 8.00 to 9.00. Moreover, in data set [2], the “growth inhibition in the absence of IFNγ” value was “no observed growth inhibition”. Moreover, the “T cell activation and T cell function” value in data set [3] is “increased both T cell activation and T cell function”. Also, the tolerability entry in data set [4] was “well tolerated, without obvious adverse health events”.

As for `CC(C)(O)CCOc1ccc2cc(O)c(N3CC(=O)NS3(=O)=O)c(F)c2c1` [Compound 182, 5-[1-fluoro-3-hydroxy-7-(3-hydroxy-3-methylbutoxy)naphthalen-2-yl]-1λ^6,2,5-thiadiazolidine-1,1,3-trione], the “T cell activation and T cell function” value in data set [3] is “increased both T cell activation and T cell function”. In data set [4], the tolerability entry was “well tolerated, without obvious adverse health events”.

These data come from US20230019236A1, “PROTEIN TYROSINE PHOSPHATASE INHIBITORS AND METHODS OF USE THEREOF” (Calico Life Sciences LLC, priority 2019, published 2023).
